Measured values from publication PMC12067444, “Synthesis and Pharmacological Characterization of Novel Peripheral Cannabinoid-1 Receptor Blockers Based on a Tricyclic Scaffold” (Journal of Medicinal Chemistry, 2025).
Read-outs that look alike come from different tables or passages of the source.

Tests used:
mouse CB1R = molecular target: T1, mouse CB1R (Mus musculus, UniProt P47746); assay: Radioligand competition displacement binding, [3H]CP-55,940, mouse brain membranes
T1 construct: crude membranes from mouse brain; from tissue; host or cells: mouse brain cortex (without cerebellum) membranes, C57Bl/6Jhsd mice
T1 sequence (P47746 whole entry): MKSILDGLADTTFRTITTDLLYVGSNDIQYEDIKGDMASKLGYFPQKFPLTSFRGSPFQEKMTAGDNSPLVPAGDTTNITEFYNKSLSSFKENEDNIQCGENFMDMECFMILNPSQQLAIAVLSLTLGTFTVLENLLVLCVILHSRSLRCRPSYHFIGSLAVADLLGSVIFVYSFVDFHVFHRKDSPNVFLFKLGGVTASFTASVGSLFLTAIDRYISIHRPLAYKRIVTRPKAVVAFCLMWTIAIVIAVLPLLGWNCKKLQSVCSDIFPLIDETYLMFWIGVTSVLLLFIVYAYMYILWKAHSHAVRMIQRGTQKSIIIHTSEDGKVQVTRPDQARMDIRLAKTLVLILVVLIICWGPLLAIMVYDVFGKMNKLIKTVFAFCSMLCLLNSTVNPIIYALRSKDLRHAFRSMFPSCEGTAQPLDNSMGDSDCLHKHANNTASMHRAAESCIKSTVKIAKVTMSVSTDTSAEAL
Procedure: (§1) BNS compounds’ binding to CB1R and CB2R was assessed in competition displacement assays using [^3H]CP-55,940 as the radioligand and crude membranes from mouse brain or human cells overexpressing the CB1R or CB2R. All data were in triplicates with Ki values determined from three independent experiments. See SI for a detailed procedure.
Supplementary Experimental Methods
Brain membrane preparation for CB1R b i nd i ng . The mouse cortex, excluding the cerebellum, was dissected from 6-week-old C57Bl/6Jhsd mice (Harlan, Israel). The tissue was homogenized in 4 mL Buffer 1 (320 mM sucrose, 2 mM EDTA, 5 m M MgCl 2) using a glass-Teflon homogenizer and Hei-T ORQUE 200 (Heidolph; Cat# 17-012- 002- 25 -1) homogenizer set to 132 rpm. After homogenization, the mixture was centrifuged at 1,600 × g for 10 min at four °C, and the resulting supernatant was kept on ice. The pellet (P1) was discarded, and the remaining supernatant was subje cted to additional rounds of resuspension in 4 mL Buffer 1 followed by centrifugations, repeating this process three times. The pellets obtained from these centrifugations were discarded, and the three supernatant fractions were combined and subjected to higher-speed centrifugation at 39,000 × g for 15 min at f ou r °C. […] This resuspended pellet ( P 2 ) was incubated at 37 °C for 10 min and then centrifuged at 23, 000 × g for 10 min at 4°C.
After centrifugation, the pellet (P2) was resuspended in 5 mL Buffer 2 and further incubated at 30 °C for 40 min. Following this incubation, the suspension was centrifuged at 11,000 × g for 15 min at 4 °C. The pellet (P2) was resuspended in 2 mL Buffer 3 containing 50 mM TRIS HCl pH 7.4, 1 mM EDTA, and 3 mM MgCl 2. T h e protein concentration of the final suspension was determined using the BCA assay.
Subsequently, the suspension was diluted to a final concentration of 2 mg/mL in Buffer 3, aliquoted on ice, and stored at - 80 °C for further use.
CB1R and CB2R binding. Binding to the CB1R/CB2R was asse ss ed using competition displacement as says with [ 3H] CP -55,940 as the radioligand. Purified membranes from the mouse brain were utilized for CB1R assessment (as described above). Purified […]
membranes from cells overexpressing human CB2R ( Char les River CAT # A618) w e r e employed for CB2R evaluation.
For mouse CB1R binding assays, the novel compounds were dissolved in dimethyl sulfoxide (DMSO) to reach a final concentration of 10 mM. Each compound was then diluted in Buffer 3 (as described above) supplemented with 0.14% BSA, resulting in concentrations ranging from 10^-4 M to 10^-10 M. Triplicates of 100 µL of each concentration were dispensed into siliconized glass tubes. At the same time, 100 µL of Buffer 3 with 0.14% BSA was dispensed into three tubes as blanks. CB1R b r a i n membranes (20 µg) were added to each tube and diluted with 800 µL Buffer 3 with 0.14% BSA. Subsequently, 5 nM of [ 3H] CP -55,940 (100 µL) was added to each tube.
The tubes were sealed with parafilm and incubated with shaking (120 rpm) in a water bath at 30 °C for 1 hour. Following incubation, 2 mL of cold Buffer 4 (50 mM TRIS HCl pH 7.4, 1 mg/mL BSA) was added to each tube.
To harvest the content of each tube, a Brandel M-24R Vacuum Harvester was employed, with a wet WHATMAN GF/B filter paper (Fired) (one membrane for 12 tubes) placed in the harvester after being washed twice with Buffer 4. The filter membrane in the harvester absorbed the full content of each tube. Then, the filter membrane was wash ed six times with Buffer 4. Each filter -glass membrane tube wa s excised and transferred to a 20 mL glass tube co ntaining a 5 mL ULTIMA GOLD scintillation cocktail. […]

human CB1R = molecular target: T2, human CB1R (Homo sapiens, UniProt P21554); assay: Radioligand competition displacement binding, [3H]CP-55,940, membranes with human CB1R
T2 construct: purchased PerkinElmer RBHCB1M400UA
T2 sequence (P21554 whole entry): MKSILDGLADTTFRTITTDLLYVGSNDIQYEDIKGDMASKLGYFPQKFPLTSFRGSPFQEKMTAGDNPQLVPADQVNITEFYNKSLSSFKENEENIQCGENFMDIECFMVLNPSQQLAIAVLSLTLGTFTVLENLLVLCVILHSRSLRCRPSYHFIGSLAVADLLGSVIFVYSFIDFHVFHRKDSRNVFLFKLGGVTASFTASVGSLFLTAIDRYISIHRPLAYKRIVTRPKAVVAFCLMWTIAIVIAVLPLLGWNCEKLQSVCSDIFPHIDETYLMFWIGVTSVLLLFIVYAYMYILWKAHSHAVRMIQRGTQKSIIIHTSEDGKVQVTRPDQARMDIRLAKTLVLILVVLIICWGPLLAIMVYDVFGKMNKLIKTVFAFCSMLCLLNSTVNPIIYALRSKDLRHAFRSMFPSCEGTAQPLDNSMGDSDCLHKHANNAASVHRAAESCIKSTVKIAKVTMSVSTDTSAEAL
Procedure: as §1, with “procedure. […]” for “procedure.”
Radioligand binding assays were performed to asse ss the binding affinity of the different compounds to hCB1R (RBHCB1M4 00UA; Per kinElmer) or hCB 2R
(RBXCB2 M400UA; PerkinElmer). Competition displacement as says w ere employed, […]
utilizing [3H] C P -55,940 as the radioligand and crude membranes from humans for CB1 R or CB2 R. T he compounds were tested at various concentrations (eight points with a five-fold serial dilution starting at two m M) , and their ability to displace [3H] CP - 55, 940 was evaluated. Upon completion of the binding assays, the reaction mixture was filtered through GF/C plates, followed by four washes with cold wash buffer. After drying for one hour, 50 μL of Perkin Elmer Microscint 20 cocktail was added to the filter plate wells, and the bound [3H] C P -55,940 radioligand was measured using a β counter. All data points were duplicated, and Ki values were determined from two independent experiments using GraphPad Prism 7.02 analysis software, extracted through nonlinear regression analysis. […]

HepG2 cells = assay: Cell viability assay (CellTiter Glo); format: cell-based; details: 72 h; for IC50: Homo sapiens
Procedure: Cell viability assay. To assess the cell viability, which indicates the toxicity of the novel compounds, a total of 3,000 HepG2 cells were seeded into a 384-well plate. The compounds were then dispensed onto the cell plate using a Tecan D300e digital dispenser. Following compound addition, 35 μL CellTiter Glo reagent was added to all wells of the assay plate, and the plate was mixed for 30 sec on an or bital shaker to lyse cells. Subsequently, the plate was incubated at room temperature for 10 minutes. The luminescence signal was measured using a 384-well plate reader (EnVision). The obtained data were analyzed using XL-fit software (ID Business Solutions Ltd., Software version: XL fit 5. 5. 0. 5). The percentage of inhibition was calculated using the […]
Inhibition (%) = (1-Sample / ZPE) ×100
Sample represents the test compound's luminesc e nce signal, and ZPE represents the luminescence signal f r om the zer o-percent enzyme control.

[1] = [3H]CP-55,940 displacement, mouse brain membranes, read-out: CB1R mKi
[2] = human CB1R, read-out: CB1R hIC50
[3] = read-out: cell viability Absolute IC50
[4] = read-out: cell viability relative IC50

Row | Ki (mouse CB1R; [1]) | IC50 (human CB1R; [2]) | IC50 (HepG2 cells; [3]) | IC50 (HepG2 cells; [4]) | Ki (human CB1R; [3H]CP-55,940 displacement, human CB1R membranes, read-out: CB1R hKi) | SMILES | Bottom (%) of cell viability inhibition curve (HepG2 cells) | Slope of cell viability inhibition curve (HepG2 cells) | Top (%) of cell viability inhibition curve (HepG2 cells) | Ki (mouse CB1R) | IC50 (human CB1R)
1 | 10 nM | 1.5 nM | > 100000 nM | 18000 nM |  | Cc1ccc(S(=O)(=O)NC2CCCOc3c2nn(-c2ccccc2Cl)c3-c2ccc(Cl)cc2)cc1 (stereo not shown) [BNS807] | -12.17% | 1.52 | 21.39% |  | 
2 | 18 nM | 10.1 nM | 55900 nM | 46700 nM | 9.09 nM | CS(=O)(=O)N1CCC(C(=O)NC2CCCOc3c2nn(-c2ccccc2Cl)c3-c2ccc(Cl)cc2)CC1 (stereo not shown) [BNS815, N-[2-(2-Chlorophenyl)-3-(4-chlorophenyl)-5,6,7,8-tetrahydrooxepino[3,2-c]pyrazol-8-yl]-1-methylsulfonyl-piperidine-4-carboxamide] | -9.25% | 3.71 | 80.41% |  | 

Row | SMILES | Ki (mouse CB1R; [1]) | IC50 (human CB1R; [2]) | IC50 (HepG2 cells; [3]) | IC50 (HepG2 cells; [4]) | Ki (human CB1R; [3H]CP-55,940 displacement, human CB1R membranes, read-out: CB1R hKi) | Bottom (%) of cell viability inhibition curve (HepG2 cells) | Slope of cell viability inhibition curve (HepG2 cells) | Top (%) of cell viability inhibition curve (HepG2 cells) | Ki (mouse CB1R) | IC50 (human CB1R)
3 | O=S(=O)(NC1CCCOc2c1nn(-c1ccccc1Cl)c2-c1ccc(Cl)cc1)c1ccc(Cl)cc1 (stereo not shown) [BNS808, 4-chloro-N-[2-(2-chlorophenyl)-3-(4-chlorophenyl)-5,6,7,8-tetrahydrooxepino[3,2-c]pyrazol-8-yl]benzenesulfonamide] |  |  | 26200 nM | 16800 nM |  | -8.11% | 3.39 | 62.98% | 0.7 nM | 0.8 nM
